Patent US20230227466A1, “SUBSTITUTED THIENOPYRIMIDINES THAT INTERACT WITH THE RAS SUPERFAMILY FOR THE TREATMENT OF CANCERS, INFLAMMATORY DISEASES, RASOPATHIES, AND FIBROTIC DISEASE” (SHY Therapeutics, LLC, priority 2020, published 2023)
Read-outs that look alike come from different tables or passages of the source.

Columns and labels:
[1] = target: GTP binding domain of Ras (Homo sapiens, UniProt P01112); settings: literature (Feuerstein 1987; John 1990); cited from earlier work
K-Ras (G12C) [2] = target: T1, K-Ras (G12C) (Homo sapiens, UniProt P01116, G12C); assay: MicroScale Thermophoresis (MST) GTP affinity; settings: read-out: MST GTP affinity for binding domain
Text: (§1) As disclosed in International Application No. PCT/US2018/038613 and U.S. patent application Ser. No. 16/013,872, the affinity of GTP for the GTP binding domain of K-Ras utilizing a Scintillation Proximity Assay (SPA) and MicroScale Thermophoresis (MST) has been measured. These methods were not available when Wittinghofer and colleagues undertook their studies.
(§2) This therefore led to the novel, unanticipated conclusion that compounds such as small molecules could be discovered that would bind to a Ras GTP binding domain and compete with the binding of GTP to Ras.
(§3) See Khawaja et al., “Scintillation proximity assay in lead discovery”, Expert Opin. Drug Discov., 2008 November; 3(11):1267-80 regarding SPA procedures. See the following references regarding MST technology: Wienken et al., Nature Communications (2010), Protein binding assays in biological liquids using MicroScale Thermophoresis; Jerabek-Willemsen et al., ASSAY and Drug Development Technologies (2011), Molecular interaction studies using MicroScale Thermophoresis; Lin et al., Cell (2012), Inhibition of basal FGF receptor signaling by dimeric Grb2; Seidel et al., Angewandte Chemie (2012), Label-Free MicroScale Thermophoresis discriminates sites and affinity of protein-ligand binding; Seidel et al., Methods (2012), MicroScale Thermophoresis quantifies biomolecular interactions under previously challenging conditions; Parker & Newstead, Nature (2014), Molecular basis of nitrate uptake by the plant nitrate transporter NRT1.1; and Jerabek-Willemsen et al., Journal of Molecular Structure (2014), MicroScale Thermophoresis: Interaction analysis and beyond.

K-Ras (G12D) [3] = target: T2, K-Ras (G12D) (Homo sapiens, UniProt P01116, G12D); assay: MicroScale Thermophoresis (MST) GTP affinity; settings: read-out: MST GTP affinity for binding domain
Text: as §1, §2, §3

K-Ras (Q61H) [4] = target: T3, K-Ras (Q61H) (Homo sapiens, UniProt P01116, Q61H); assay: MicroScale Thermophoresis (MST) GTP affinity; settings: read-out: MST GTP affinity for binding domain
Text: as §1, §2, §3

KRas wild type [5] = target: T4, KRas wild type (Homo sapiens, UniProt P01116); assay: MicroScale Thermophoresis (MST) GTP affinity; settings: read-out: MST GTP affinity for binding domain
Text: as §1, §2, §3

Rac-1 [6] = target: T5, Rac-1 (Homo sapiens, UniProt P63000); assay: MicroScale Thermophoresis (MST) GTP affinity; settings: read-out: MST GTP affinity for binding domain
Text: as §1, §2, §3

Rho-A [7] = target: T6, Rho-A (Homo sapiens, UniProt P61586); assay: MicroScale Thermophoresis (MST) GTP affinity; settings: read-out: MST GTP affinity for binding domain
Text: as §1, §2, §3

K-Ras (G12C) [8] = target: T1, K-Ras (G12C); assay: Scintillation Proximity Assay (SPA) GTP affinity; settings: read-out: SPA GTP affinity for binding domain
Text: as §1, §2, §3

K-Ras (G12D) [9] = target: T2, K-Ras (G12D); assay: Scintillation Proximity Assay (SPA) GTP affinity; settings: read-out: SPA GTP affinity for binding domain
Text: as §1, §2, §3

K-Ras (Q61H) [10] = target: T3, K-Ras (Q61H); assay: Scintillation Proximity Assay (SPA) GTP affinity; settings: read-out: SPA GTP affinity for binding domain
Text: as §1, §2, §3

KRas wild type [11] = target: T4, KRas wild type; assay: Scintillation Proximity Assay (SPA) GTP affinity; settings: read-out: SPA GTP affinity for binding domain
Text: as §1, §2, §3

Rac-1 [12] = target: T5, Rac-1; assay: Scintillation Proximity Assay (SPA) GTP affinity; settings: read-out: SPA GTP affinity for binding domain
Rho-A [13] = target: T6, Rho-A; assay: Scintillation Proximity Assay (SPA) GTP affinity; settings: read-out: SPA GTP affinity for binding domain
[14] = target: K-Ras GTP binding domain (wild type and mutant K-Ras); assay: SPA and MST studies, GTP affinity across K-Ras forms
Text: as §2, §3

Rac-1 and Rho-A = assay: SPA and MST studies, GTP affinity for Rho subfamily members; settings: read-out: affinity of GTP for the binding domain of Rac-1 and Rho-A members of the Rho subfamily
Text: as §2, §3

KRas G12C mutant = target: T7, KRas G12C mutant (Homo sapiens, UniProt P01116, G12C); assay: Ras GTP binding domain inhibition assay (labeled-GTP competition, cell-free)
T7 construct: made in house
Text: (§4) This is a competitive binding assay. It involves the immobilization of a protein on solid phase, interaction with a small molecule drug candidate, and then competitive binding with a labeled native GTP or GDP ligand.
(§5) In theory, the assay is suitable for use with any GTP or GDP binding protein.
(§6) The following method was developed as specific assay for the following proteins: KRas wild type, KRas Q61H mutant, KRas G12C mutant, KRas G12D mutant, Rac-1, and Rho-A.
(§7) The small GTPases proteins: KRas wild type. KRas Q61H mutant, KRas G12C mutant, KRas G12D mutants, Rac-1, and Rho-A were expressed as His-tagged proteins. In addition, the Guanosine nucleotide Exchange Factor (GEF) Sos protein (residues 556-1049) was expressed as a His-tagged protein. In cells, the guanine nucleotide exchange factor Sos protein promotes activation of Ras proteins by stimulating an exchange of GDP for GTP. The inclusion of Sos to the Ras GTP binding domain inhibition assay may be considered as an alternative representation of physiological cellular conditions for evaluating the inhibitory activity of some of the tested small molecules.
(§8) For the assay, all purified small GTPases proteins were diluted in Buffer-I or Buffer-II to a final concentration of 10-30 μg/mL. 200 μL of each diluted protein was added to a nickel-coated 96-well plate and incubated overnight at 4° C. Then the protein solution was discarded and 200 μL of Buffer-I or Buffer-II was added to each well in the presence of 1% DMSO. Compounds to be tested were added to the protein-coated wells at final concentration of 20 μM, and incubated for 3 hours at room temperature with and without 10-30 μg/mL of Sos added to the final hour of the incubation. When performing IC50 measurements a serial dilution of all tested concentrations was added. Then Cy3-GTP or Cy5-GTP was added to each well to a final concentration of 100 nM. The labeled GTP was incubated for 45 minutes at room temperature. Following GTP incubation, wells were washed 3× in Buffer-I or Buffer-II and 200 μL of Buffer-I or Buffer-II was added to each well. Following washes, the amount of bound labeled-GTP was measured using a SpectraMax M3 (Molecular Devices).

KRas G12D mutant = target: T8, KRas G12D mutant (Homo sapiens, UniProt P01116, G12D); assay: as above
T8 construct: made in house
Text: as §4, §5, §6, §7, §8

KRas Q61H mutant = target: T9, KRas Q61H mutant (Homo sapiens, UniProt P01116, Q61H); assay: as above
T9 construct: made in house
Text: as §4, §5, §6, §7, §8

KRas wild type [15] = target: T4, KRas wild type; assay: as above; parameters: made in house
Text: as §4, §5, §6, §7, §8

Rac-1 [16] = target: T5, Rac-1; assay: as above; parameters: made in house
Text: as §4, §5, §6, §7, §8

Rho-A [17] = target: T6, Rho-A; assay: as above; parameters: made in house
Text: as §4, §5, §6, §7, §8

[18] = tested on: MIA-PaCa-2 pancreatic cancer cell line (KRAS G12C); assay: Cell proliferation assay (CellTiter 96 Aqueous One); assay type: cell-based; settings: Homo sapiens
Protocol: Cell lines: Human tumor-derived cell lines were purchased from American Type Culture Collection. Human tumor-derived pancreatic cancer cell line MIA-PACA2 (having a KRAS G12C mutation) and Panc-1 (having a KRAS G12D mutation), and Human non-small cell lung cancer (NSCLC) cell line A549 (having a KRAS G12S mutation) were grown in complete DMEM-High Glucose. Human colon cancer cell line SW-620 (having a KRAS G12V mutation) was grown in RPMI. All cell lines were supplemented with penicillin (100 U/mL), streptomycin (100 μg/mL), and 10% heat-inactivated FBS at 37° C. in a humidified incubator with 5% CO2.
Method: Cells were plated at 2000 to 5000 cells/well density in 96-wells plate and cultured overnight. Small molecules to be tested were added to the cells in the final concentration of 10 μM in the presence of 0.3% DMSO and 10% FBS, and incubated for 2-4 days at 37° C. in a humidified incubator with 5% CO2. For IC50 value determination, serial dilutions of compounds were added to cells under the same conditions.
Assay: At the end of the incubation period, cell viability was measured using the CellTiter 96® Aqueous One Solution Cell Proliferation Assay according to manufacturer specifications (Promega, Madison, Wis.). The percentage of small molecules inhibition of cellular proliferation was calculated from raw data.

[19] = with SOS, read-out: KRas G12C mutant + SOS: % inh.
[20] = without SOS, read-out: KRas G12C mutant: % inh.
[21] = with SOS, read-out: KRas G12D mutant + SOS: % inh.
[22] = without SOS, read-out: KRas G12D mutant: % inh.
[23] = with SOS, read-out: KRas Q61H mutant + SOS: % inh.
[24] = without SOS, read-out: KRas Q61H mutant: % inh.
[25] = with SOS, read-out: KRas wild type + SOS: % inh.
[26] = without SOS, read-out: KRas wild type: % inh.
[27] = without SOS, read-out: Rac-1: % inh.
[28] = without SOS, read-out: Rho-A: % inh.

inhibition at 20 µM (KRas G12C mutant; [19]) [%]	inhibition at 20 µM (KRas G12C mutant; [20]) [%]	inhibition at 20 µM (KRas G12D mutant; [21]) [%]	inhibition at 20 µM (KRas G12D mutant; [22]) [%]	inhibition at 20 µM (KRas Q61H mutant; [23]) [%]	inhibition at 20 µM (KRas Q61H mutant; [24]) [%]	inhibition at 20 µM (KRas wild type [15]; [25]) [%]	inhibition at 20 µM (KRas wild type [15]; [26]) [%]	inhibition at 20 µM (Rac-1 [16]; [27]) [%]	inhibition at 20 µM (Rho-A [17]; [28]) [%]	SMILES	affinity for the GTP binding domain of Ras [1]	also measured
–	–	–	–	–	–	–	–	–	–	Nc1nc2c(ncn2[C@@H]2O[C@H](COP(=O)(O)OP(=O)(O)O)[C@@H](O)[C@H]2O)c(=O)[nH]1 [GDP]	single to double digit picomolar	–
–	–	–	–	–	–	–	–	–	–	Nc1nc2c(ncn2[C@@H]2O[C@H](COP(=O)(O)OP(=O)(O)OP(=O)(O)O)[C@@H](O)[C@H]2O)c(=O)[nH]1 [GTP]	single to double digit picomolar	Kd (K-Ras (G12C) [2]): 207 ± 46 nM; Kd (K-Ras (G12D) [3]): 244 ± 12 nM; Kd (K-Ras (Q61H) [4]): 157 ± 21 nM; Kd (KRas wild type [5]): 463 ± 2 nM; Kd (Rac-1 [6]): 166 ± 10 nM; Kd (Rho-A [7]): 130 ± 5 nM; Kd (K-Ras (G12C) [8]): 258 ± 18 nM; Kd (K-Ras (G12D) [9]): 270 ± 15 nM; Kd (K-Ras (Q61H) [10]): 118 ± 11 nM; Kd (KRas wild type [11]): 243 ± 15 nM; Kd (Rac-1 [12]): 151 ± 14 nM; Kd (Rho-A [13]): 129 ± 12 nM; Kd [14]: 100 to 465 nM; Kd (Rac-1 and Rho-A): 120 to 170 nM
1 to 25	26 to 50	1 to 25	26 to 50	1 to 25	1 to 25	0	26 to 50	1 to 25	51 to 75	Oc1nc(-c2ccc3[nH]ncc3n2)nc2c(-c3ccccn3)csc12 [Compound 93, 2-(1H-Pyrazolo[4,3-b]pyridin-5-yl)-7-(pyridin-2-yl)thieno[3,2-d]pyrimidin-4-ol]	–	–
76 to 100	51 to 75	76 to 100	51 to 75	76 to 100	51 to 75	76 to 100	76 to 100	76 to 100	76 to 100	Oc1nc(-c2ccccn2)nc2c(-c3ncccc3F)csc12 [Compound 27, 7-(3-Fluoropyridin-2-yl)-2-(pyridin-2-yl)thieno[3,2-d]pyrimidin-4-ol]	–	IC50 (KRas Q61H mutant; with SOS): 1000 to 4990 nM; IC50 ([18]; MIA PaCa-2, MIA PaCa-2): 1 to 4.99 µM; inhibition at 10 µM ([18]; 10 μM, MIA PaCa-2, read-out: % inh cell proliferation (10 μM) in MIA PaCa-2): 76 to 100%; inhibition at 20 µM (Rac-1 [16]; with SOS, read-out: Rac-1 + SOS: % inh.): 76 to 100%; inhibition at 20 µM (Rho-A [17]; with SOS, read-out: Rho-A + SOS: % inh.): 76 to 100%
